Results from US7928227B2, “2-oxo-1,3,5-perhydrotriazapine derivatives useful in the treatment of hyper-proliferative, angiogenesis, and inflammatory disorders” (Bayer Healthcare LLC, priority 2003, dated 2011).

Key:
[1] = Pharmacokinetics in the mouse (plasma levels by LC-MS after oral gavage of Example 1); assay type: in vivo; conditions: for AUC / Cmax / concentration at 0.5 h / concentration at 1 h / concentration at 5 h: mouse, female ICr mice, single oral gavage of Example 1 at 30 mg/kg, plasma; for concentration at 0.5 h: 0.5 hours post dosing; for concentration at 1 h: 1 hour post dosing; for concentration at 5 h: 5 hours post dosing
Description: Female ICr mice received single doses of Example 1 by oral gavage at 30 mg/kg body weight. The vehicle used for administration consisted of 12.5% Cremophor, 12.5% ethanol and 75% saline. Blood samples were collected by cardiac puncture under anesthesia and plasma was isolated by centrifugation. Three animals were used for each time point of 0.5, 1 and 5 hours post dosing. Plasma levels of Example 1 and Intermediate 1 were measured by LC-MS.
Calibration samples (1 to 5,000 ng/mL) were prepared by spiking drug-free mouse plasma with known concentrations of Example 1 and Intermediate 1 and then processed with the study samples. An internal standard (close analog) was spiked at a final concentration of 100 ng/ml. Plasma samples were extracted via protein precipitation using acetonitrile (3:1). After vortexing for 1 minute, samples were centrifuged at 2500 rpm for 15 minutes. Supernatant was transferred to 96-well microtiter plates for LC-MS analysis. Analytes (Example 1 and Intermediate 1) and the internal standard were monitored using MRM transitions consisting of their protonated molecular ions to prominent fragment ions (Example 1 m/z 520 to m/z 270; Intermediate 1 m/z 465 to 252; internal standard m/z 469 to m/z 256). The calibration curve was constructed using least squares linear regression and utilized peak area ratios of the analyte and internal standard. Pharmacokinetic analysis of the measured plasma concentrations was conducted using the Watson® Drug Metabolism Laboratory Information Management System (Innaphase Corp, Philadelphia, Pa.). […] By changing the nature of substituent Q in Formula (I), it is possible to impact the stability, i.e., the speed of hydrolysis) of the prodrug, and therefore to modulate the plasma exposure to the pharmacologically active compound. High stabilities will lead to extended release of the drug, while low stabilities will contribute to high Cmax and short duration of action.

AUC [1] [µM·h] | Cmax [1] [µM] | concentration at 0.5 h [1] [µM] | concentration at 1 h [1] [µM] | concentration at 5 h [1] [µM] | Absorption in mice ([1]; oral gavage of Example 1 at 30 mg/kg, result in words) | melting point [°C] | Levels detected in plasma after oral administration of the pro-drug Example 1 ([1]; mice, oral gavage of Example 1 at 30 mg/kg, result in words) | SMILES
53.1 | 13 | 12.1 | 13 | 9.4 | very well absorbed | 82 to 85 |  | CNC(=O)c1cc(Oc2ccc(N3CN(C)CN(c4ccc(Cl)c(C(F)(F)F)c4)C3=O)cc2)ccn1 [Example 1]
1 | 0.3 | 0.1 | 0.2 | 0.5 |  |  | significant levels | CNC(=O)c1cc(Oc2ccc(NC(=O)Nc3ccc(Cl)c(C(F)(F)F)c3)cc2)ccn1 [Intermediate 1, N-(4-chloro-3(trifluoromethyl)phenyl)-N′-(4-(2-(N-methylcarbamoyl)-4-pyridyloxy)phenyl)urea, reference compound]
